Laboratory results: patent US10729668B2, “Ketobutyrate compounds and compositions for treating age-related symptoms and diseases” (The Regents of the University of California, priority 2014, dated 2020)

Assays:
Isolated hearts = test: Isolated heart ischemia and reperfusion (LVDP); conditions: 30 minutes ischemia, 60 minutes reperfusion, post-ischemic administration
Experimental: Isolated hearts were subjected to 30 minutes ischemia followed by 60 minutes of reperfusion with control buffer, 2-KB, (R)-2-hydroxybutyrate, (R)-3-hydroxybutyrate (also known as ketone body), α-KG, and the Complex I inhibitor rotenone. LVDP is shown as a function of time.

Huh7.5 cells = test: MTT cytotoxicity assay; format: cell-based; conditions: 100 nM to 1 mM, up to 72 hours
Experimental: As subjects age, their susceptibility to infection increases. Therefore, to determine whether α-KB reduces ones susceptibility to age-related infection, Huh7.5 cells were infected with the Renilla reporter HCV for 5 hours and subsequently treated with 1 mM and 1 μM of α-KB. 72 hours post treatment, the cells were lysed and luciferase activity was measured. JG-98, which is a suppressor of viral assembly, was used as a positive control and water was used as a negative control. […] To ensure that the anti-viral activity of α-KB is not the result of cytotoxicity, Huh7.5 cells were treated with 1 mM, 100 μM, 10 μM, 1 μM, and 100 nM α-KB. MTT assays were performed every 24 hours up to 72 hours post treatment. Luteolin, an anti-cancer compound which is cytotoxic, was used as a positive control and water was used as a negative control.

**Q.** Which results are given for CCC(=O)C(=O)O [α-KB, α-ketobutyrate]?
**A.** heart function after ischemia (LVDP) (Isolated hearts): restores heart function after ischemia; cytotoxicity (MTT) (Huh7.5 cells): not cytotoxic
